From patent US20080113946A1, “N-aryl-5,7-dihydrofuro[3,4-d]pyrimidin-4-amines and analogs as activators of caspases and inducers of apoptosis and the use thereof” (Cyntovia, Inc., priority 2006, published 2008)
pEC50: −log10 of the molar value. Where two headings read alike, the source gives them in different places.

Assays:
Assay type in all cases: cell-based
[1] = test system: human hepatocellular carcinoma cell line SNU398; assay: Caspase cascade activation (Ac-DEVD-R110 fluorogenic substrate) in SNU398 cells
Method: (§1) Human breast cancer cell line T-47D, human hepatocellular carcinoma cell line SNU398 and human colon carcinoma cell line HCT116 were grown according to media component mixtures designated by American Type Culture Collection+10% FCS (Invitrogen Corporation), in a 5% CO2-95% humidity incubator at 37° C. T-47D and H1299 cells were maintained at a cell density between 50 and 80% confluency at a cell density of 0.1 to 0.6×10^6 cells/mL. Cells were harvested at 600×g and resuspended at 0.65×10^6 cells/mL into appropriate media+10% FCS. An aliquot of 22.5 μL of cells was added to a well of a 384-well microtiter plate containing 2.5 μL of a 10% DMSO in RPMI-1640 media solution containing 0.16 to 100 μM of 5,7-dihydro-N-(3,5-dimethoxyphenyl)-2-(methylthio)furo[3,4-d]pyrimidin-4-amine or other test compound (0.016 to 10 μM final). An aliquot of 22.5 μL of cells was added to a well of a 384-well microtiter plate containing 2.5 μL of a 10% DMSO in RPMI-1640 media solution without test compound as the control sample. The samples were mixed by agitation and then incubated at 37° C. for 24 or 48 h in a 5% CO2-95% humidity incubator. After incubation, the samples were removed from the incubator and 25 μL of a solution containing 14 μM of N-(Ac-DEVD)-N′-ethoxycarbonyl-R110 (SEQ ID No.:1) fluorogenic substrate (Cytovia, Inc.; WO99/18856), 20% sucrose (Sigma), 20 mM DTT (Sigma), 200 mM NaCl (Sigma), 40 mM Na PIPES buffer pH 7.2 (Sigma), and 500 µg/mL lysolecithin (Calbiochem) was added. The samples were mixed by agitation and incubated at room temperature. Using a fluorescent plate reader (Model SPECTRAfluor Plus, Tecan), an initial reading (T=0) was made approximately 1-2 min after addition of the substrate solution, employing excitation at 485 nm and emission at 530 nm, to determine the background fluorescence of the control sample. After the 3 h incubation, the samples were read for fluorescence as above (T=3 h).
(§2) The Relative Fluorescence Unit values (RFU) were used to calculate the sample readings as follows: RFU(T=3h)−Control RFU(T=0)=Net RFU(T=3h)
(§3) The activity of caspase cascade activation was determined by the ratio of the net RFU value for 5,7-dihydro-N-(3,5-dimethoxyphenyl)-2-(methylthio)furo[3,4-d]pyrimidin-4-amino or other test compound to that of control samples. The EC50 (nM) was determined by a sigmoidal dose-response calculation (Prism 3.0, GraphPad Software Inc.).

[2] = test system: Human breast cancer cell line T-47D; assay: Caspase cascade activation (Ac-DEVD-R110 fluorogenic substrate) in T-47D cells; conditions: T47D
Method: as §1, §2, §3

[3] = test system: T-47D cells; assay: Inhibition of cell proliferation (GI50, CellTiter-Glo) in T-47D cells; conditions: Homo sapiens, T47D, 48 h, read-out: GI50 in Cancer Cells T47D
Method: (§4) T-47D, MX-1, SNU398 and HCT116 cells were grown and harvested as in Example 33. An aliquot of 90 μL of cells (4.4×10^4 cells/mL) was added to a well of a 96-well microtiter plate containing 5 μL of a 10% DMSO in RPMI-1640 media solution containing 10 nM to 100 μM of 5,7-dihydro-N-(3,5-dimethoxyphenyl)-2-(methylthio)furo[3,4-d]pyrimidin-4-amine (1 nM to 10 μM final) or related compounds. An aliquot of […] of cells was added to a well of a 96-well microtiter plate containing 5 μL of a 10% DMSO in RPMI-1640 media solution without compound as the control sample for maximal cell proliferation (LMax). The samples were mixed by agitation and then incubated at 37° C. for 48 h in a 5% CO2-95% humidity incubator. After incubation, the samples were removed from the incubator and 25 μL of CellTiter-Glo™ reagent (Promega) was added. The samples were mixed by agitation and incubated at room temperature for 10-15 min. Plates were then read using a luminescent plate reader (Model SPECTRAfluor Plus, Tecan) to give Ltest values.
(§5) Baseline for GI50 (dose for 50% inhibition of cell proliferation) of initial cell numbers was determined by adding an aliquot of 45 μL of cells or 45 μL of media, respectively, to wells of a 96-well microtiter plate containing 5 μL of a 10% DMSO in RPMI-1640 media solution. The samples were mixed by agitation and then incubated at 37° C. for 0.5 h in a 5% CO2-95% humidity incubator. After incubation, the samples were removed from the incubator and 25 μL of CellTiter-Glo™ reagent (Promega) was added. The samples were mixed by agitation and incubated at 37° C. for 10-15 min at room temperature in a 5% CO2-95% humidity incubator. Fluorescence was read as above, (LStart) defining luminescence for initial cell number used as baseline in GI50 determinations.
(§6) GI50 (dose for 50% inhibition of cell proliferation) is the concentration where [(LTest−LStart)/(LMax−LStart)]=0.5.

[4] = test system: human breast cancer cell lines MDAMB435; assay: Inhibition of cell proliferation (GI50) in MDAMB435 cells; conditions: MDA-MB-435, read-out: GI50 in Multi-Cancer Cells MDAMB435
Method: [The procedure below names another cell line; the source lists this cell line under the same test.] as §4
(§7) Baseline for GI50 (dose for 50% inhibition of cell proliferation) of initial cell numbers was determined by adding an aliquot of 45 μL of cells or 45 μL of media, respectively, to wells of a 96-well microtiter plate containing 5 μL of a 10% DMSO in RPMI-1640 media solution. […]

[5] = test system: multi-drug resistant (MDR) human sarcoma cell line MES-SA/ADR; assay: Inhibition of cell proliferation (GI50) in MES-SA/ADR cells; conditions: read-out: GI50 in Multi-Cancer Cells MES-SA/ADR
Method: [The procedure below names another cell line; the source lists this cell line under the same test.] as §4, §7

[6] = test system: multi-drug resistant (MDR) murine leukemia cell line P388ADR; assay: Inhibition of cell proliferation (GI50) in P388ADR cells; conditions: Mus musculus, P388/ADR, read-out: GI50 in Multi-Cancer Cells P388ADR
Method: [The procedure below names another organism; the source lists this organism under the same test.] as §4, §7

[7] = test system: human lung cancer cell line H1299; assay: Caspase cascade activation (24 h assay) in H1299 cells; conditions: NCI-H1299, 24 h assay (Table II), read-out: Caspase Activation Potency EC50 (24 h) H1299
Method: as §1, with “After incubation, the samples were removed from the incubator and 25 μL of a solution containing 14 μM of N-(Ac-DEVD)-N′-ethoxycarbonyl-R110 (SEQ ID No.:1) fluorogenic substrate (Cytovia, Inc.; WO99/18856), 20% sucrose (Sigma), 20 mM DTT (Sigma), 200 mM NaCl (Sigma), 40 mM Na PIPES buffer pH 7.2 (Sigma), and 500 µg/mL lysolecithin (Calbiochem) was added. The samples were mixed by agitation and incubated at room temperature.” left out
as §2
(§8) The activity of caspase cascade activation was determined by the ratio of the net RFU value for 5,7-dihydro-N-(3,5-dimethoxyphenyl)-2-(methylthio)furo[3,4-d]pyrimidin-4-amino or other test compound to that of control samples. The EC50 (nM) was determined by a sigmoidal dose-response calculation (Prism 3.0, GraphPad Software Inc.). […]

[8] = test system: MX-1 cells; assay: Inhibition of cell proliferation (GI50, CellTiter-Glo) in MX-1 cells; conditions: Homo sapiens, MX1, 48 h, read-out: GI50 in Cancer Cells MX1
Method: as §4, §5, §6

[9] = test system: human sarcoma cell line MES-SA; assay: Inhibition of cell proliferation (GI50) in MES-SA cells; conditions: read-out: GI50 in Multi-Cancer Cells MES-SA
Method: [The procedure below names another cell line; the source lists this cell line under the same test.] as §4, §7

[10] = test system: murine leukemia cell line P388; assay: Inhibition of cell proliferation (GI50) in P388 cells; conditions: Mus musculus, read-out: GI50 in Multi-Cancer Cells P388
Method: [The procedure below names another organism; the source lists this organism under the same test.] as §4, §7

[11] = test system: SNU398 cells; assay: Inhibition of cell proliferation (GI50, CellTiter-Glo) in SNU398 cells; conditions: Homo sapiens, SNU-398, 48 h, read-out: GI50 in Cancer Cells SNU398
Method: as §4, §5, §6

[12] = test system: HCT116 cells; assay: Inhibition of cell proliferation (GI50, CellTiter-Glo) in HCT116 cells; conditions: Homo sapiens, HCT-116, 48 h, read-out: GI50 in Cancer Cells HCT116
Method: as §4, §5, §6

[13] = test system: human colon carcinoma cell line HCT116; assay: Caspase cascade activation (Ac-DEVD-R110 fluorogenic substrate) in HCT116 cells; conditions: HCT-116, incubated 24 or 48 h (Table I), 0.016 to 10 μM final, read-out: Caspase Activation Potency EC50 HCT116
Method: as §1, §2, §3

[14] = test system: breast cancer cell line SKBR3; assay: Caspase cascade activation (24 h assay) in SKBR3 cells; conditions: Homo sapiens, SK-BR-3, 24 h assay (Table II), read-out: Caspase Activation Potency EC50 (24 h) SKBR3
Method: [The procedure below names another cell line; the source lists this cell line under the same test.] Human breast cancer cell line T-47D, human hepatocellular carcinoma cell line SNU398 and human colon carcinoma cell line HCT116 were grown according to media component mixtures designated by American Type Culture Collection+10% FCS (Invitrogen Corporation), in a 5% CO2-95% humidity incubator at 37° C. T-47D and H1299 cells were maintained at a cell density between 50 and 80% confluency at a cell density of 0.1 to 0.6×10^6 cells/mL. Cells were harvested at 600×g and resuspended at 0.65×10^6 cells/mL into appropriate media+10% FCS. […] Using a fluorescent plate reader (Model SPECTRAfluor Plus, Tecan), an initial reading (T=0) was made approximately 1-2 min after addition of the substrate solution, employing excitation at 485 nm and emission at 530 nm, to determine the background fluorescence of the control sample. After the 3 h incubation, the samples were read for fluorescence as above (T=3 h).
as §2, §8

[15] = SNU-398, 24 h assay (Table II), read-out: Caspase Activation Potency EC50 (24 h) SNU398
[16] = 24 h assay (Table II), read-out: Caspase Activation Potency EC50 (24 h) T47D
[17] = T-47D, incubated 24 or 48 h (Table I), 0.016 to 10 μM final, read-out: Caspase Activation Potency EC50 T-47D
[18] = SNU-398, incubated 24 or 48 h (Table I), 0.016 to 10 μM final, read-out: Caspase Activation Potency EC50 SNU398

Row | Compound | pEC50 [1, 15] | pEC50 [2, 16] | pEC50 [2, 17] | GI50 [3] | GI50 [4] | GI50 [5] | GI50 [6] | pEC50 [7] | GI50 [8] | GI50 [9] | GI50 [10] | GI50 [11] | GI50 [12] | pEC50 [1, 18] | pEC50 [13] | pEC50 [14]
1 | COc1ccc(N(C)c2nc(SC)nc3c2CCC3)cc1 [Example 23, 6,7-Dihydro-N-(4-methoxyphenyl)-N-methyl-2-(methylthio)-5H-cyclopenta[d]pyrimidin-4-amine] | 7.46 | 7.49 | 7.51 | 46 nM | 4 nM | 26 nM | 21 nM | 7.37 | 50 nM | 26 nM | 14 nM |  |  |  |  | 
2 | COc1cc(Nc2nc(SC)nc3c2COC3)cc(OC)c1 [Example 7, 5,7-Dihydro-N-(3,5-dimethoxyphenyl)-2-(methylthio)furo[3,4-d]pyrimidin-4-amine] | < 5.00 | 7.27 | 7.21 | 183 nM |  |  |  |  | 27 nM |  |  | 3.74 µM | 3 µM | 5.33 | 5.26 | 6.93
3 | COc1cc(Nc2nc([S+](C)[O-])nc3c2CCC3)cc(OC)c1 (centres unmarked) [Example 27, 6,7-Dihydro-N-(3,5-dimethoxyphenyl)-2-(methylsulfinyl)-5H-cyclopenta[d]pyrimidin-4-amine] |  |  | 6.79 | 500 nM |  |  |  |  | 600 nM |  |  | > 10 µM | > 10 µM | < 5.00 | < 5.00 | 
4 | COc1cc(Nc2ncnc3c2CCC3)cc(OC)c1 [Example 24, 6,7-Dihydro-N-(3,5-dimethoxyphenyl)-5H-cyclopenta[d]pyrimidin-4-amine] |  |  | 6.01 | 5000 nM |  |  |  |  | 5000 nM |  |  | > 10 µM | > 10 µM | < 5.00 | < 5.00 | 
5 | COc1ccc(OC)c(Nc2nc(SC)nc3c2CCC3)c1 [Example 18, 6,7-Dihydro-N-(2,5-dimethoxyphenyl)-2-(methylthio)-5H-cyclopenta[d]pyrimidin-4-amine] | < 5.00 | 7.09 | 6.87 | 21 nM |  |  |  | 6.03 | 200 nM |  |  | > 10 µM | > 10 µM | 5.88 | 6.54 | 
6 | COc1ccc(OC)c(Nc2ncnc3c2CCC3)c1 [Example 25, 6,7-Dihydro-N-(2,5-dimethoxyphenyl)-5H-cyclopenta[d]pyrimidin-4-amine] | < 5.00 | 6.61 | 6.59 | 1000 nM |  |  |  | < 5.00 | 890 nM |  |  | > 10 µM | > 10 µM | < 5.00 | < 5.00 | 6.45
